# Measurements reported in patent US20240287007A1, “N-(1,3,4-OXADIAZOL-2-YL)PHENYLCARBOXAMIDES AS HERBICIDES” (BAYER AKTIENGESELLSCHAFT, priority 2021, published 2024).
# Tests used:
# Type in all cases: in vivo
# [1] = system: ABUTH (Abutylon threophrasti); test: Pre-emergence herbicidal effect against ABUTH; settings: scored visually after 3 weeks
# Description: (§1) Seeds of monocotyledonous and dicotyledonous weed plants and crop plants are laid out in sandy loam soil in wood-fiber pots and covered with soil. The compounds of the invention, formulated in the form of wettable powders (WP) or as emulsion concentrates (EC), are then applied to the surface of the covering soil as aqueous suspension or emulsion at a water application rate equating to 600 to 800 l/ha with addition of 0.2% wetting agent. After the treatment, the pots are placed in a greenhouse and kept under good growth conditions for the trial plants. The damage to the test plants is scored visually after a test period of 3 weeks by comparison with untreated controls (herbicidal activity in percent (%): 100% activity=the plants have died, 0% activity=like control plants).
# [2] = system: PHBPU (Pharbitis purpurea); test: Post-emergence herbicidal action against PHBPU; settings: visual assessment after about 3 weeks
# Experimental: (§2) Seeds of monocotyledonous and dicotyledonous weed and crop plants are laid out in sandy loam soil in wood-fiber pots, covered with soil and cultivated in a greenhouse under good growth conditions. 2 to 3 weeks after sowing, the trial plants are treated at the one-leaf stage. The compounds of the invention, formulated in the form of wettable powders (WP) or as emulsion concentrates (EC), are then sprayed onto the green parts of the plants as aqueous suspension or emulsion at a water application rate equating to 600 to 800 l/ha with addition of 0.2% wetting agent. After the test plants have been left to stand in the greenhouse under optimal growth conditions for about 3 weeks, the action of the preparations is assessed visually in comparison to untreated controls (herbicidal action in percent (%): 100% activity=the plants have died, 0% activity=like control plants).
# [3] = system: AMARE (Amaranthus retroflexus); test: Post-emergence herbicidal action against AMARE; settings: visual assessment after about 3 weeks
# Experimental: as §2
# [4] = system: AVEFA (Avena fatua); test: Pre-emergence herbicidal effect against AVEFA; settings: 80 g/ha, scored visually after 3 weeks
# Description: as §1
# [5] = system: POLCO (Polygonum convolvulus); test: Post-emergence herbicidal action against POLCO; settings: 80 g/ha, visual assessment after about 3 weeks
# Experimental: as §2
# [6] = system: VIOTR (Viola tricolor); test: Post-emergence herbicidal action against VIOTR; settings: visual assessment after about 3 weeks
# Experimental: as §2
# [7] = system: ALOMY (Alopecurus myosuroides); test: Pre-emergence herbicidal effect against ALOMY; settings: 80 g/ha, scored visually after 3 weeks
# Description: as §1
# [8] = system: AVEFA (Avena fatua); test: Post-emergence herbicidal action against AVEFA; settings: visual assessment after about 3 weeks
# Experimental: as §2
# [9] = system: POLCO (Polygonum convolvulus); test: Pre-emergence herbicidal effect against POLCO; settings: 80 g/ha, scored visually after 3 weeks
# Description: as §1
# [10] = system: MATIN (Matricaria inodora); test: Post-emergence herbicidal action against MATIN; settings: visual assessment after about 3 weeks
# Experimental: as §2
# [11] = system: SETVI (Setaria viridis); test: Post-emergence herbicidal action against SETVI; settings: visual assessment after about 3 weeks
# Experimental: as §2
# [12] = system: ABUTH (Abutylon threophrasti); test: Post-emergence herbicidal action against ABUTH; settings: visual assessment after about 3 weeks
# Experimental: as §2
# [13] = system: LOLRI (Lolium rigidum); test: Post-emergence herbicidal action against LOLRI; settings: visual assessment after about 3 weeks
# Experimental: as §2
# [14] = system: ECHCG (Echinochloa crus-galli); test: Post-emergence herbicidal action against ECHCG; settings: visual assessment after about 3 weeks
# Experimental: as §2
# [15] = system: VIOTR (Viola tricolor); test: Pre-emergence herbicidal effect against VIOTR; settings: scored visually after 3 weeks
# Description: as §1
# [16] = system: ECHCG (Echinochloa crus-galli); test: Pre-emergence herbicidal effect against ECHCG; settings: scored visually after 3 weeks
# Description: as §1
# [17] = system: AMARE (Amaranthus retroflexus); test: Pre-emergence herbicidal effect against AMARE; settings: scored visually after 3 weeks
# Description: as §1
# [18] = system: DIGSA (Digitaria sanguinalis); test: Pre-emergence herbicidal effect against DIGSA; settings: scored visually after 3 weeks
# Description: as §1
# [19] = system: VERPE (Veronica persica); test: Pre-emergence herbicidal effect against VERPE; settings: scored visually after 3 weeks
# Description: as §1
# [20] = system: VERPE (Veronica persica); test: Post-emergence herbicidal action against VERPE; settings: visual assessment after about 3 weeks
# Experimental: as §2
# [21] = system: PHBPU (Pharbitis purpurea); test: Pre-emergence herbicidal effect against PHBPU; settings: 80 g/ha, scored visually after 3 weeks
# Description: as §1
# [22] = system: MATIN (Matricaria inodora); test: Pre-emergence herbicidal effect against MATIN; settings: scored visually after 3 weeks
# Description: as §1
# [23] = system: KCHSC (Kochia scoparia); test: Post-emergence herbicidal action against KCHSC; settings: visual assessment after about 3 weeks
# Experimental: as §2
# [24] = system: DIGSA (Digitaria sanguinalis); test: Post-emergence herbicidal action against DIGSA; settings: visual assessment after about 3 weeks
# Experimental: as §2
# [25] = system: KCHSC (Kochia scoparia); test: Pre-emergence herbicidal effect against KCHSC; settings: scored visually after 3 weeks
# Description: as §1
# [26] = system: SETVI (Setaria viridis); test: Pre-emergence herbicidal effect against SETVI; settings: scored visually after 3 weeks
# Description: as §1
# [27] = system: LOLRI (Lolium rigidum); test: Pre-emergence herbicidal effect against LOLRI; settings: 80 g/ha, scored visually after 3 weeks
# Description: as §1
structure (smiles),measurement,setting,value
C[S+]([O-])c1c(OC(F)F)ccc(C(=O)Nc2nnco2)c1Cl (racemic) [Example 1-22],Pre-emergence effect at 20 g/ha against ABUTH in %,[1],80%
same,Pre-emergence effect at 80 g/ha against ABUTH in %,[1],100%
same,Post-emergence effect at 80 g/ha against PHBPU in %,[2],100%
same,Post-emergence effect at 20 g/ha against AMARE in %,[3],100%
same,Post-emergence effect at 80 g/ha against AMARE in %,[3],100%
same,Pre-emergence effect at 80 g/ha against A VEFA in %,[4],80%
same,Post-emergence effect at 80 g/ha against POLCO in %,[5],90%
same,Post-emergence effect at 20 g/ha against VIOTR in %,[6],100%
same,Post-emergence effect at 80 g/ha against VIOTR in %,[6],100%
same,Pre-emergence effect at 80 g/ha against ALOMY in %,[7],80%
same,Post-emergence effect at 20 g/ha against A VEFA in %,[8]; 20 g/ha,90%
same,Post-emergence effect at 80 g/ha against AVEFA in %,[8],100%
same,Pre-emergence effect at 80 g/ha against POLCO in %,[9],90%
same,Post-emergence effect at 20 g/ha against MATIN in %,[10],100%
same,Post-emergence effect at 80 g/ha against MATIN in %,[10],100%
same,Post-emergence effect at 20 g/ha against SETVI in %,[11],100%
same,Post-emergence effect at 80 g/ha against SETVI in %,[11],100%
same,Post-emergence effect at 20 g/ha against ABUTH in %,[12],100%
same,Post-emergence effect at 80 g/ha against ABUTH in %,[12],100%
same,Post-emergence effect at 80 g/ha against LOLRI in %,[13],90%
same,Post-emergence effect at 20 g/ha against ECHCG in %,[14],100%
same,Post-emergence effect at 80 g/ha against ECHCG in %,[14],100%
same,Pre-emergence effect at 20 g/ha against VIOTR in %,[15],100%
same,Pre-emergence effect at 80 g/ha against VIOTR in %,[15],100%
same,Pre-emergence effect at 20 g/ha against ECHCG in %,[16],90%
same,Pre-emergence effect at 80 g/ha against ECHCG in %,[16],100%
same,Pre-emergence effect at 20 g/ha against AMARE in %,[17],100%
same,Pre-emergence effect at 80 g/ha against AMARE in %,[17],100%
same,Pre-emergence effect at 20 g/ha against DIGSA in %,[18],100%
same,Pre-emergence effect at 80 g/ha against DIGSA in %,[18],100%
same,Pre-emergence effect at 20 g/ha against VERPE in %,[19],80%
same,Pre-emergence effect at 80 g/ha against VERPE in %,[19],90%
same,Post-emergence effect at 20 g/ha against VERPE in %,[20],90%
same,Post-emergence effect at 80 g/ha against VERPE in %,[20],100%
same,Pre-emergence effect at 80 g/ha against PHBPU in %,[21],80%
same,Pre-emergence effect at 20 g/ha against MATIN in %,[22],100%
same,Pre-emergence effect at 80 g/ha against MATIN in %,[22],100%
same,Post-emergence effect at 20 g/ha against KCHSC in %,[23],100%
same,Post-emergence effect at 80 g/ha against KCHSC in %,[23],100%
same,Post-emergence effect at 20 g/ha against DIGSA in %,[24],100%
same,Post-emergence effect at 80 g/ha against DIGSA in %,[24],100%
same,Pre-emergence effect at 20 g/ha against KCHSC in %,[25],100%
same,Pre-emergence effect at 80 g/ha against KCHSC in %,[25],100%
same,Pre-emergence effect at 20 g/ha against SETVI in %,[26],90%
same,Pre-emergence effect at 80 g/ha against SETVI in %,[26],100%
"CS(=O)(=O)c1c(OC(F)F)ccc(C(=O)Nc2nnco2)c1Cl [Example 1-25, 2-chloro-4-(difluoromethoxy)-3-(methylsulfonyl)-N-(1,3,4-oxadiazol-2-yl)benzamide]",Pre-emergence effect at 20 g/ha against ABUTH in %,[1],100%
same,Pre-emergence effect at 80 g/ha against ABUTH in %,[1],100%
same,Pre-emergence effect at 80 g/ha against LOLRI in %,[27],90%
same,Post-emergence effect at 20 g/ha against PHBPU in %,[2]; 20 g/ha,100%
same,Post-emergence effect at 80 g/ha against PHBPU in %,[2],100%
same,Post-emergence effect at 20 g/ha against AMARE in %,[3],100%
same,Post-emergence effect at 80 g/ha against AMARE in %,[3],100%
same,Pre-emergence effect at 80 g/ha against A VEFA in %,[4],90%
same,Post-emergence effect at 20 g/ha against VIOTR in %,[6],100%
same,Post-emergence effect at 80 g/ha against VIOTR in %,[6],100%
same,Post-emergence effect at 80 g/ha against AVEFA in %,[8],100%
same,Post-emergence effect at 20 g/ha against MATIN in %,[10],100%
same,Post-emergence effect at 80 g/ha against MATIN in %,[10],100%
same,Post-emergence effect at 20 g/ha against SETVI in %,[11],100%
same,Post-emergence effect at 80 g/ha against SETVI in %,[11],100%
same,Post-emergence effect at 20 g/ha against ABUTH in %,[12],100%
same,Post-emergence effect at 80 g/ha against ABUTH in %,[12],100%
same,Post-emergence effect at 20 g/ha against ECHCG in %,[14],80%
same,Post-emergence effect at 80 g/ha against ECHCG in %,[14],100%
same,Pre-emergence effect at 20 g/ha against VIOTR in %,[15],100%
same,Pre-emergence effect at 80 g/ha against VIOTR in %,[15],100%
same,Pre-emergence effect at 20 g/ha against ECHCG in %,[16],100%
same,Pre-emergence effect at 80 g/ha against ECHCG in %,[16],100%
same,Pre-emergence effect at 20 g/ha against AMARE in %,[17],100%
same,Pre-emergence effect at 80 g/ha against AMARE in %,[17],100%
same,Pre-emergence effect at 20 g/ha against DIGSA in %,[18],100%
same,Pre-emergence effect at 80 g/ha against DIGSA in %,[18],100%
same,Pre-emergence effect at 20 g/ha against VERPE in %,[19],90%
same,Pre-emergence effect at 80 g/ha against VERPE in %,[19],100%
same,Post-emergence effect at 20 g/ha against VERPE in %,[20],90%
same,Post-emergence effect at 80 g/ha against VERPE in %,[20],100%
same,Pre-emergence effect at 80 g/ha against PHBPU in %,[21],90%
same,Pre-emergence effect at 20 g/ha against MATIN in %,[22],100%
same,Pre-emergence effect at 80 g/ha against MATIN in %,[22],100%
same,Post-emergence effect at 20 g/ha against KCHSC in %,[23],100%
same,Post-emergence effect at 80 g/ha against KCHSC in %,[23],100%
same,Post-emergence effect at 20 g/ha against DIGSA in %,[24],100%
same,Post-emergence effect at 80 g/ha against DIGSA in %,[24],100%
same,Pre-emergence effect at 20 g/ha against KCHSC in %,[25],100%
same,Pre-emergence effect at 80 g/ha against KCHSC in %,[25],100%
same,Pre-emergence effect at 20 g/ha against SETVI in %,[26],100%
same,Pre-emergence effect at 80 g/ha against SETVI in %,[26],100%
